Laboratory results published in paper PMC5940854, “Nitrothiophene carboxamides, a novel narrow spectrum antibacterial series: Mechanism of action and Efficacy” (Scientific Reports, 2018).
≈ marks a conversion by molar mass, not a printed value.

Legend:
[1] = test system: E. coli clinical isolates; assay: MIC on panel of E. coli clinical isolates; type: cell-based
[2] = Cytotoxicity, MTS assay; type: cell-based; conditions: human, A549 cells
Method: Cytotoxicity of the compounds was evaluated using MTS ((3-(4,5-dimethylthiazol-2-yl)-5-(3-carboxymethoxyphenyl)-2-(4-sulfophenyl)-2H-tetrazolium)) assay. A-549 cells were seeded in a 96 well plate at a density if 1.5 × 10^4 cells/well (100 μL). The cells were cultured in a CO2 incubator at 37 °C. A ten point concentration curve was set up starting from 5 nM to 100 μM with 3 fold dilution along with positive, negative and blank controls. The final concentration of DMSO was maintained at 1% throughout the plate. The compound treatment was carried out for 24 hrs. After incubation MTS reagent was added followed by 30 min incubation. The absorbance was measured at 490 nm. Data analysis was done using GraphPad Prism 6.0.

[3] = molecular target: T1, NfsA (Escherichia coli, UniProt P17117); assay: Nitroreductase activity assay, NfsA; type: biochemical, E. coli; conditions: 20 μM compound, 40 μM NADPH, 10 nM NfsA; slope of initial velocity
T1 construct: His-tag; made in house; host or cells: E. coli BL21(DE3), pET28a (pET-nfsA)
T1 sequence (P17117 whole entry): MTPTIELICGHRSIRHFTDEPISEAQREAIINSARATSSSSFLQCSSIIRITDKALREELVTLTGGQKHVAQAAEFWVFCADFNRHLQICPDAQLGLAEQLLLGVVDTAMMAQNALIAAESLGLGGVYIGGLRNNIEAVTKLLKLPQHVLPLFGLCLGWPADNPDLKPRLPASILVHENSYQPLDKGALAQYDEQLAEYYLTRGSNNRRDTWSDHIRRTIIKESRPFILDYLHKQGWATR
Method: Enzyme reducing each of the substrates are measured by monitoring the concomitant oxidation of NADPH by NfsA and NADH by NfsB in a fluorescence based assay. The reduction in fluorescence due to the NADH oxidation (excitation 350 nm, emission 460 nm) and NADPH oxidation (excitation 340 nm, emission 485 nm) is recorded using a TECAN Infinite M200Pro spectrophotometer, in half area solid black microtiter plates. This change in fluorescence directly corelates to the reduction of the nitro-compounds in the reaction. The NfsA assays is performed by initiating the reactions with 40 μM NADPH and 10 nM NfsA in 50 mM Tris-HCl (pH 7.4), 5 mM EDTA against 20 μM substrate (5 μl of compounds/substrate dissolved in 100% DMSO) in a total reaction volume of 100 μl at 25 °C. Similarly, the NfsB assay is also performed by initiating the reactions with 40 μM NADH and 70 nM NfsB in 50 mM Tris-HCl (pH 7.4), 5 mM EDTA against 20 μM substrate in a total reaction volume of 100 μl. […] All reactions are performed in replicates of two or more and the fluorescence measurements are made at 10 second intervals for 5–10 minutes.
Low solubility of the compounds/substrates under the NfsA and NfsB assay conditions precluded determination of their Km. […] The relative fluorescence units (RFU) obtained due to NADPH (excitation 340 nm, emission 485 nm) or NADH (excitation 350 nm, emission 460 nm) oxidation of the first 90 sec reaction is used to compute the slopes using linear regression analysis on GraphPad Prism. Appropriate blank reactions are included to account for background fluorescence/quenching from each of the components such as DMSO, the compound itself and auto-oxidation of NADPH or NADH. Activity of NfsB with a known substrate such as nitrofurantoin is used as a benchmark to plot the relative activities with all the test compounds.

Compound: O=C(Nc1nc(-c2ccc(F)cc2)cs1)c1ccc([N+](=O)[O-])s1 [compound 15, N-(4-(4-Fluorophenyl)thiazol-2-yl)-5-nitrothiophene-2-carboxamide]
- MIC Range ([1]; 75 E.coli clinical isolates): 0.6 to 40 µg/mL
- MIC50 ([1]; Escherichia coli, 75 E.coli clinical isolates, 50% clinical isolates): 1.25 µg/mL (≈ 3.58 µM)
- MIC90 ([1]; Escherichia coli, 75 E.coli clinical isolates, 90% clinical isolates): 10 µg/mL (≈ 28.6 µM)
- MIC ([1]; strain SEC001): 1 µg/mL (≈ 2.86 µM)
- MIC ([1]; strain SEC002): 0.5 µg/mL (≈ 1.43 µM)
- MIC ([1]; strain SEC003): 4 µg/mL (≈ 11.4 µM)
- MIC ([1]; strain SEC004): 1 µg/mL (≈ 2.86 µM)
- MIC ([1]; strain SEC005): 0.5 µg/mL (≈ 1.43 µM)
- MIC ([1]; strain SEC006): 0.5 µg/mL (≈ 1.43 µM)
- MIC ([1]; strain SEC007): 1 µg/mL (≈ 2.86 µM)
- MIC ([1]; strain SEC008): 4 µg/mL (≈ 11.4 µM)
- MIC ([1]; strain SEC011): 0.5 µg/mL (≈ 1.43 µM)
- MIC ([1]; strain SEC012): 1 µg/mL (≈ 2.86 µM)
- MIC ([1]; strain SEC013): 2 µg/mL (≈ 5.72 µM)
- MIC ([1]; strain SEC014): 1 µg/mL (≈ 2.86 µM)
- MIC ([1]; strain SEC015): 0.5 µg/mL (≈ 1.43 µM)
- MIC ([1]; strain SEC016): 8 µg/mL (≈ 22.9 µM)
- MIC ([1]; strain SEC017): 1 µg/mL (≈ 2.86 µM)
- MIC ([1]; strain SEC018): 0.5 µg/mL (≈ 1.43 µM)
- MIC ([1]; strain SEC019): 4 µg/mL (≈ 11.4 µM)
- MIC ([1]; strain SEC020): 1 µg/mL (≈ 2.86 µM)
- MIC ([1]; strain SEC021): 0.5 µg/mL (≈ 1.43 µM)
- MIC ([1]; strain SEC022): 1 µg/mL (≈ 2.86 µM)
- MIC ([1]; strain SEC023): 0.5 µg/mL (≈ 1.43 µM)
- MIC ([1]; strain SEC024): 2 µg/mL (≈ 5.72 µM)
- MIC ([1]; strain SEC025): 4 µg/mL (≈ 11.4 µM)
- MIC ([1]; strain SEC026): 2 µg/mL (≈ 5.72 µM)
- MIC ([1]; strain SEC028): 1 µg/mL (≈ 2.86 µM)
- MIC ([1]; strain SEC029): 8 µg/mL (≈ 22.9 µM)
- MIC ([1]; strain SEC031): 8 µg/mL (≈ 22.9 µM)
- MIC ([1]; strain SEC032): 1 µg/mL (≈ 2.86 µM)
- MIC ([1]; strain SEC033): 1 µg/mL (≈ 2.86 µM)
- MIC ([1]; strain SEC034): 1 µg/mL (≈ 2.86 µM)
- MIC ([1]; strain SEC035): 8 µg/mL (≈ 22.9 µM)
- MIC ([1]; strain SEC036): 2 µg/mL (≈ 5.72 µM)
- MIC ([1]; strain SEC037): 8 µg/mL (≈ 22.9 µM)
- MIC ([1]; strain SEC038): 8 µg/mL (≈ 22.9 µM)
- MIC ([1]; strain SEC039): 4 µg/mL (≈ 11.4 µM)
- MIC ([1]; strain SEC040): 8 µg/mL (≈ 22.9 µM)
- MIC ([1]; strain SEC041): 8 µg/mL (≈ 22.9 µM)
- MIC ([1]; strain SEC042): 8 µg/mL (≈ 22.9 µM)
- MIC ([1]; strain SEC043): 8 µg/mL (≈ 22.9 µM)
- MIC ([1]; strain SEC044): 8 µg/mL (≈ 22.9 µM)
- MIC ([1]; strain SEC045): 8 µg/mL (≈ 22.9 µM)
- MIC ([1]; strain SEC046): 8 µg/mL (≈ 22.9 µM)
- MIC ([1]; strain SEC047): 8 µg/mL (≈ 22.9 µM)
- MIC ([1]; strain SEC048): 8 µg/mL (≈ 22.9 µM)
- MIC ([1]; strain SEC049): 8 µg/mL (≈ 22.9 µM)
- MIC ([1]; strain SEC050): 2 µg/mL (≈ 5.72 µM)
- MIC ([1]; strain SEC051): 2 µg/mL (≈ 5.72 µM)
- MIC ([1]; strain SEC052): 1 µg/mL (≈ 2.86 µM)
- MIC ([1]; strain SEC053): 8 µg/mL (≈ 22.9 µM)
- MIC ([1]; strain SEC054): 1 µg/mL (≈ 2.86 µM)
- MIC ([1]; strain SEC055): 1 µg/mL (≈ 2.86 µM)
- MIC ([1]; strain SEC057): 1 µg/mL (≈ 2.86 µM)
- MIC ([1]; strain SEC058): 0.5 µg/mL (≈ 1.43 µM)
- MIC ([1]; strain SEC059): 0.5 µg/mL (≈ 1.43 µM)
- MIC ([1]; strain SEC060): 0.5 µg/mL (≈ 1.43 µM)
- MIC ([1]; strain SEC061): 2 µg/mL (≈ 5.72 µM)
- MIC ([1]; strain SEC062): 2 µg/mL (≈ 5.72 µM)
- MIC ([1]; strain SEC063): 1 µg/mL (≈ 2.86 µM)
- MIC ([1]; strain SEC064): 1 µg/mL (≈ 2.86 µM)
- MIC ([1]; strain SEC065): 1 µg/mL (≈ 2.86 µM)
- MIC ([1]; strain SEC067): 1 µg/mL (≈ 2.86 µM)
- MIC ([1]; strain SEC068): 1 µg/mL (≈ 2.86 µM)
- MIC ([1]; strain SEC069): 1 µg/mL (≈ 2.86 µM)
- MIC ([1]; strain SEC070): 4 µg/mL (≈ 11.4 µM)
- MIC ([1]; strain SEC071): 8 µg/mL (≈ 22.9 µM)
- MIC ([1]; strain SEC072): 8 µg/mL (≈ 22.9 µM)
- MIC ([1]; strain SEC073): 8 µg/mL (≈ 22.9 µM)
- MIC ([1]; strain SEC074): 1 µg/mL (≈ 2.86 µM)
- MIC ([1]; strain SEC075): 1 µg/mL (≈ 2.86 µM)
- MIC ([1]; strain SEC076): 1 µg/mL (≈ 2.86 µM)
- MIC ([1]; strain SEC077): 0.5 µg/mL (≈ 1.43 µM)
- MIC ([1]; strain SEC078): 0.5 µg/mL (≈ 1.43 µM)
- MIC ([1]; strain SEC079): 1 µg/mL (≈ 2.86 µM)
- MIC ([1]; strain SEC080): 1 µg/mL (≈ 2.86 µM)
- IC50 at 24 h [2]: 10.2 µg/mL (≈ 29.2 µM)
- NfsA activity (rate of compound conversion) [3]: 2.05 µM/min
